Measured values reported in patent US10301272B2, “Carboxamide or sulfonamide substituted thiazoles and related derivatives as modulators for the orphan nuclear receptor ROR[γ]” (Phenex Pharmaceuticals AG, priority 2012, dated 2019).
Where two headings read alike, the source gives them in different places.

Key:
[1] = target: RORγ (Homo sapiens, UniProt P51449); assay: RORγ Gal4 Reporter Gene Assay; type: cell-based; details: for IC50: 293T cells
Procedure, shortened: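 Cells at 5×10^5/well were transfected with RORγ fragments fused to the GAL4 DNA-binding domain (CMV promoter), a 5×GAL4-site firefly luciferase reporter and CMV-Renilla luciferase for normalization. About 4 h later serum-free MEM and compound were added (vehicle ≤0.1%). Cultures at 37 °C, 5% CO2; at least triplicates.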

[2] = target: RORγ ligand binding domain (LBD) (Homo sapiens (Human), UniProt P51449); assay: TR-FRET Activity Assay (ligand sensing assay, LANCE); details: for pIC50 (FRET): TR-FRET, interaction of RORγ-LBD with coactivator peptide
Sequence of RORγ ligand binding domain (LBD) (P51449 269-508): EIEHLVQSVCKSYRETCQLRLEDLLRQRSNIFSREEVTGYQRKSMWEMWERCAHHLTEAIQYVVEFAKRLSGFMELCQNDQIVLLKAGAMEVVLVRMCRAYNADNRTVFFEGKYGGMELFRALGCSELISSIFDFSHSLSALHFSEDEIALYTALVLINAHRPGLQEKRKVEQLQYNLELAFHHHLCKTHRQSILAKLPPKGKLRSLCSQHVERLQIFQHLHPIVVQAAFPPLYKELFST

Sequence of RORγ (P51449 whole entry, looked up, the tested form may be a part): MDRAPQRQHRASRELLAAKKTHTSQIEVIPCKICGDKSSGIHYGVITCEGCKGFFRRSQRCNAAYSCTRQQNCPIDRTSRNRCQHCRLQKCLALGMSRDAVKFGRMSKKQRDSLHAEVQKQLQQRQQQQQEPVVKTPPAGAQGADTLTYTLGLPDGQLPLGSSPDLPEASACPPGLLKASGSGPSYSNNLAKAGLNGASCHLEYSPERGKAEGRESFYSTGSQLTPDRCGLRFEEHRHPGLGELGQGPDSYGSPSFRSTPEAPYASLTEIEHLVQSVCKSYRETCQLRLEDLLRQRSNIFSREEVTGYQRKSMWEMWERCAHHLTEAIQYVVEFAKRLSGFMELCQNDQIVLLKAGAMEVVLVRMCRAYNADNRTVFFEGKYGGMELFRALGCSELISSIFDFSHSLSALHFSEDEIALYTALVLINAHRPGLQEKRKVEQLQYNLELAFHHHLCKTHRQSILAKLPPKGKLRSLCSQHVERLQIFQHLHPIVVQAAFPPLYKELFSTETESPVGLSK

Structure (SMILES) | pIC50 (FF) [1] | pIC50 (REN) [1] | pIC50 (FRET) [2] | IC50 ([1]; firefly (FF) luciferase, read-out: pIC50 (FF) (converted)) [nM] | IC50 ([1]; renilla normalised (RENnorm) luciferase, read-out: pIC50 (REN) (converted)) [nM] | IC50 [2] [nM]
CC(C)(O)CNC(=O)c1nc(CC2CCCCC2)c(-c2ccc(S(=O)(=O)NC(C)(C)C)c3cccc(F)c23)s1 [19/14] | 6.4/6.8/6.9 | 6.4/6.8/6.9 | 6.4/6.8/6.9 |  |  | 
CC(C)(C)c1cc(-c2sc(C(=O)N[C@H]3C[C@H](C(=O)O)C3)nc2CC2CCCCC2)cc(C(C)(C)C)n1 [8/8] |  |  |  | 63.1 | 79.4 | 501
COC(c1nc(C(=O)N[C@H]2C[C@H](C(=O)O)C2)sc1-c1cc(C(C)(C)C)cc(C2(C)CC2)c1)C1CCCCC1 (stereo partly drawn) [19/2] | 6.1/7.0/7.0 | 6.1/7.0/7.0 | 6.1/7.0/7.0 |  |  | 
CC(C)(C)c1cc(-c2sc(S(N)(=O)=O)nc2CC2CCCCC2)cc(C2(C)CC2)c1 [Example 13, 5-(3-(tert-Butyl)-5-(1-methylcyclopropyl)phenyl)-4-(cyclohexylmethyl)thiazole-2-sulfonamide] | 7.0/6.5/6.7 | 7.0/6.5/6.7 | 7.0/6.5/6.7 |  |  | 
CC(C)(C)NS(=O)(=O)c1ccc(-c2sc(C(=O)NC34CC(C(=O)O)(C3)C4)nc2CC2CCCCC2)c(Cl)c1Cl [6/38] | 6.8/7.8/7.9 | 6.8/7.8/7.9 | 6.8/7.8/7.9 |  |  | 
CC1(c2cc(-c3sc(C(=O)N[C@H]4C[C@H](C(=O)O)C4)nc3CC3CCCCC3)cc(C(F)(F)F)c2)CC1 [9/8] | 6.5/7.1/7.1 | 6.5/7.1/7.1 | 6.5/7.1/7.1 |  |  | 
CC(C)(C)NS(=O)(=O)c1ccc(-c2nc(C(=O)NC34CCC(C(=O)O)(CC3)CC4)oc2CC2CCCCC2)c2ccccc12 [Example 103/1] | 6.2/7.4/7.4 | 6.2/7.4/7.4 | 6.2/7.4/7.4 |  |  | 
CC1CCCCN1C(=O)c1nc(C(=O)NCC(C)(C)O)sc1-c1ccc(S(=O)(=O)NC(C)(C)C)c2ccccc12 (stereo not drawn) [304/7] | 6.1/7.3/7.3 | 6.1/7.3/7.3 | 6.1/7.3/7.3 |  |  | 
CC(C)(O)CNC(=O)c1nc(CC2CCC2)c(-c2ccc(S(=O)(=O)NC(C)(C)C)c3ccccc23)s1 [21/2] | 6.8/8.4/8.5 | 6.8/8.4/8.5 | 6.8/8.4/8.5 |  |  | 
CC(C)(O)CNC(=O)c1ncc(CC2CCCCC2)c(-c2cc(C(C)(C)C)cc(C(C)(C)C)c2)n1 [Example 207/1] | 6.0/6.2/6.1 | 6.0/6.2/6.1 | 6.0/6.2/6.1 |  |  | 
CC(C)(C)c1cc(-c2sc(C(=O)NCC3(C(N)=O)CCOCC3)nc2CC2CCCCC2)cc(C2(C)CC2)c1 [6/2] | 7.0/7.5/7.7 | 7.0/7.5/7.7 | 7.0/7.5/7.7 |  |  | 
CC(C)(C)c1cc(-c2oc(C(=O)NC3CCOCC3)nc2CC2CCCCC2)cc(C2(C)CC2)c1 [100/18] | 6.9/6.9/6.9 | 6.9/6.9/6.9 | 6.9/6.9/6.9 |  |  | 
Cc1c(S(=O)(=O)NC(C)(C)C)ccc(-c2sc(C(=O)N[C@H]3C[C@H](C(=O)O)C3)nc2CC2CCCCC2)c1C(F)(F)F [7/14] | 5.8/8.5/8.7 | 5.8/8.5/8.7 | 5.8/8.5/8.7 |  |  | 
CC(C)(C)NS(=O)(=O)c1ccc(-c2sc(C(=O)NC34CCC(C(=O)O)(CC3)CC4)nc2CC2CCCCC2)c2ccccc12 [6/8] | 6.3/8.2/8.2 | 6.3/8.2/8.2 | 6.3/8.2/8.2 |  |  | 
